Results taken from patent publication US20070243548A1, “Calumenin-directed diagnostics and therapeutics for cancer and chemotherapeutic drug resistance” (priority 2006, published 2007).
Read-outs that look alike come from different tables or passages of the source.

How the values were obtained:
Format in all cases: cell-based, human
MCF-7 cells [1] = assay: cells; conditions: for fold more sensitive to drug / fold lower viability to drug treatment as compared to control cells: calumenin-depleted MCF-7 cells; for fold more sensitive to drug: FIGS. 6A and 6B; for fold lower viability to drug treatment as compared to control cells: FIGS. 6C and 6D; for IC50: Homo sapiens, MCF7; for IC50 / IC10: MCF-7 cells, determined from MTT experiments
Description: (§1) For a typical siRNA transfection, […] of the annealed siRNA duplex was mixed with 1.4 ml of Opti-MEM reagent (Invitrogen). In another tube, […] of Oligofectamine reagent (Invitrogen, Carlsbad, Calif.) was mixed with […] of Opti-MEM. The two solutions were combined and mixed gently by inversion and incubated for 20 min. at RT. The resulting solution was added to the cultured cells drop by drop in a 10 cm dish (cells are approximately 40-50% confluent). The next day the transfected cells were trypsinized and seeded in 6 or 96-well plates and further incubated for the indicated amount of time (assay dependent) before further analysis.
(§2) Cell survival was determined using the MTT cytotoxicity assay (see, e.g., Tokuyama et al. (2005) Anticancer Res. 25(1A): 17-22). Small interfering RNA transfected cells were seeded in triplicate into 96-well plates at 5×10^3 cells/well 48 hrs post-transfection. The cells were incubated for an additional 16 to 24 hrs before they were exposed to increasing concentrations of cytotoxic drugs. Doxorubicin (adriamycin), cisplatin, taxol, vinblastine, vincristine, and mitoxantrone were all purchased from Sigma Corp. (St. Louis, Mo.). Stocks were made as follows: 6 mM for doxorubicin, 1.1 mM for vincristine and vinblastine; 1.1 mM for taxol, 50 mM for cisplatin both in DMSO; and 0.97 mM mitoxantrone in ethanol. Appropriate dilutions were made in the respective media for each cell line. Following addition of drugs, incubation was continued for an additional 72 hrs. […] of MTT dye (5 mg/ml) were added into each well and the plate was further incubated at 37° C. for 4 hrs. The dye was solubilized with 10% Triton X-100, 0.01 N HCl and further incubated at 37° C. in the dark for 30 min. Cell viability was determined by measure of absorption at 570 nm in a Wallac multiwell plate reader (PerkinElmer, Inc., Boston, Mass.). The averages of triplicate wells were plotted using the Prism software (GraphPad Software, Inc., San Diego, Calif.).

[2] = system: MDA breast adenocarcinoma cell line; assay: MTT cytotoxicity assay, calumenin-depleted MDA cells; conditions: Table 3; calumenin-depleted MDA vs mock siRNA-transfected cells; NC = no change occurred
Description: as §1, §2

[3] = system: SKOV3 ovarian adenocarcinoma cell lines; assay: MTT cytotoxicity assay, calumenin-depleted SKOV3 cells; conditions: Table 3; calumenin-depleted SKOV3 vs mock siRNA-transfected cells
Description: as §1, §2

MCF-7 cells [4] = assay: cells; conditions: 72 hours post transfection
MCF-7 cells [5] = assay: Clonogenic assay, siRNA-transfected MCF-7 cells; conditions: FIG. 7; for cell survival, calumenin-directed siRNA and drug treatment as compared to drug treatment alone: MCF-7, IC10 and IC90 drug concentrations
Description: A clonogenic assay generated additional information concerning cell viability after drug-resistant cells were exposed to siRNA and chemotherapeutics. Briefly, transfected MCF-7 cells were seeded in triplicate into 24-well plates at 5×10^3 cells/well 48 hrs post-transfection. The cells were incubated for an additional 16-24 hrs before they were exposed to increasing concentrations of cytotoxic drugs. […] The cells were further incubated for an additional 7 days. At the end of the incubation, the cells were stained with addition of a 0.5% Methylene Blue solution in 50% ethanol for 15 min. at RT. The staining solution was then removed and plates were dried overnight. The plates were scanned and the stained colonies were solubilized in 0.1% SDS. The absorbance of the resulting solution was determined by spectrophotometry at 660 nm. […] The same results were found for cells treated with vincristine and calumenin-directed siRNA as compared to vincristine alone (FIG. 7).

[6] = Table 2, calumenin vs control transfected MCF7 cells
[7] = Table 3, calumenin-depleted MCF-7 vs mock siRNA-transfected cells
[8] = Homo sapiens, MCF7 cells transfected with calumenin-directed siRNA (table: vector expressing calumenin-encoding RNA), read-out: EC50, Calumenin
[9] = Homo sapiens, mock vector transfected MCF7 cells, read-out: EC50, Control
[10] = calumenin depleted MCF-7, IC50 drug treatment level

| SMILES | EC50 (MCF-7 cells [4]; [8]) [nM] | IC50 (MCF-7 cells [1]) [nM] | IS: increased sensitivity to the particular drug (MCF-7 cells [1]; [6]) [× IS] | IS: increased sensitivity to the particular drug (MCF-7 cells [1]; [7]) [× IS] | fold more sensitive to drug (MCF-7 cells [1]) | IS: increased sensitivity to the particular drug [2] [× IS] | IS: increased sensitivity to the particular drug [3] [× IS] | EC50 (MCF-7 cells [4]; [9]) [nM] | fold lower viability to drug treatment as compared to control cells (MCF-7 cells [1]) [fold] | EC50 (MCF-7 cells [4]; MCF7 cells transfected with calumenin-directed siRNA (table: vector expressing calumenin-encoding RNA), read-out: EC50, Calumenin) [nM] | EC50 (MCF-7 cells [4]; mock vector transfected MCF7 cells, read-out: EC50, Control) [nM] | IC10 (MCF-7 cells [1]) [nM] | sensitivity of calumenin silenced MCF-7 cells to drug (MCF-7 cells [5]) | cell survival, calumenin-directed siRNA and drug treatment as compared to drug treatment alone (MCF-7 cells [5]) | more sensitive to drug than cells transfected with control siRNA (MCF-7 cells [5]; [10]) [%] | more sensitive to drug than cells transfected with control siRNA (MCF-7 cells [5]; calumenin-directed siRNA transfected MCF-7, IC10 drug treatment level) [%] | more sensitive to drug than cells transfected with control siRNA (MCF-7 cells [5]; calumenin depleted MCF-7, IC90 drug treatment level) [%] |
| --- | --- | --- | --- | --- | --- | --- | --- | --- | --- | --- | --- | --- | --- | --- | --- | --- | --- |
| COc1cccc2c1C(=O)c1c(O)c3c(c(O)c1C2=O)C[C@@](O)(C(=O)CO)C[C@@H]3O[C@H]1C[C@H](N)[C@H](O)[C@H](C)O1 [Doxorubicin] | 27.4 |  | 1.8 | 1.8 | two | 2.4 | 1.6 | 50 |  |  |  |  |  |  |  |  |  |
| N.N.[Cl][Pt][Cl] [Cisplatin] |  |  | 8.5 | 8.5 |  |  | 3.3 |  | 9 | 2240 | 19100 |  |  |  |  |  |  |
| CC(=O)O[C@@]12CO[C@@H]1C[C@H](O)[C@@]1(C)C(=O)[C@H](O)C3=C(C)[C@@H](OC(=O)[C@H](O)[C@@H](NC(=O)OC(C)(C)C)c4ccccc4)C[C@@](O)([C@@H](OC(=O)c4ccccc4)[C@H]21)C3(C)C [Docetaxel] | 0.00463 |  | 2.1 |  |  |  |  | 0.00976 |  |  |  |  |  |  |  |  |  |
| CC[C@]1(O)C[C@@H]2CN(CCc3c([nH]c4ccccc34)[C@@](C(=O)OC)(c3cc4c(cc3OC)N(C)[C@H]3[C@@](O)(C(=O)OC)[C@H](OC(C)=O)[C@]5(CC)C=CCN6CC[C@]43[C@@H]65)C2)C1 [Vinblastine] |  |  | 656.9 |  |  |  |  | 0.00149 |  |  |  |  |  |  |  |  |  |
| O=C1c2c(O)ccc(O)c2C(=O)c2c(NCCNCCO)ccc(NCCNCCO)c21 [Mitoxantrone] | 1.38 |  | 4.4 | 4.4 | four | 6 | 1.6 | 6.04 |  |  |  |  |  |  |  |  |  |

Second part, led by results:

| EC50 (MCF-7 cells [4]; [8]) [nM] | IC50 (MCF-7 cells [1]) [nM] | SMILES | IS: increased sensitivity to the particular drug (MCF-7 cells [1]; [6]) [× IS] | IS: increased sensitivity to the particular drug (MCF-7 cells [1]; [7]) [× IS] | fold more sensitive to drug (MCF-7 cells [1]) | IS: increased sensitivity to the particular drug [2] [× IS] | IS: increased sensitivity to the particular drug [3] [× IS] | EC50 (MCF-7 cells [4]; [9]) [nM] | fold lower viability to drug treatment as compared to control cells (MCF-7 cells [1]) [fold] | EC50 (MCF-7 cells [4]; MCF7 cells transfected with calumenin-directed siRNA (table: vector expressing calumenin-encoding RNA), read-out: EC50, Calumenin) [nM] | EC50 (MCF-7 cells [4]; mock vector transfected MCF7 cells, read-out: EC50, Control) [nM] | IC10 (MCF-7 cells [1]) [nM] | sensitivity of calumenin silenced MCF-7 cells to drug (MCF-7 cells [5]) | cell survival, calumenin-directed siRNA and drug treatment as compared to drug treatment alone (MCF-7 cells [5]) | more sensitive to drug than cells transfected with control siRNA (MCF-7 cells [5]; [10]) [%] | more sensitive to drug than cells transfected with control siRNA (MCF-7 cells [5]; calumenin-directed siRNA transfected MCF-7, IC10 drug treatment level) [%] | more sensitive to drug than cells transfected with control siRNA (MCF-7 cells [5]; calumenin depleted MCF-7, IC90 drug treatment level) [%] |
| --- | --- | --- | --- | --- | --- | --- | --- | --- | --- | --- | --- | --- | --- | --- | --- | --- | --- |
|  | 100 | CC(=O)O[C@H]1C(=O)[C@@]2(C)[C@H]([C@H](OC(=O)c3ccccc3)[C@]3(O)C[C@H](OC(=O)[C@H](O)[C@@H](NC(=O)c4ccccc4)c4ccccc4)C(C)=C1C3(C)C)[C@]1(OC(C)=O)CO[C@@H]1C[C@@H]2O [Taxol] | 4130.2 | >10 |  | 3.8 | 2.1 |  |  |  |  | 1 | substantial increase | significantly decreased | 50 | 30 |  |
| 957 |  | COc1cc([C@@H]2c3cc4c(cc3[C@@H](O[C@@H]3O[C@@H]5CO[C@@H](C)O[C@H]5[C@H](O)[C@H]3O)[C@H]3COC(=O)[C@H]23)OCO4)cc(OC)c1O [Etoposide] | 1.3 |  |  |  |  | 1200 |  |  |  |  |  |  |  |  |  |
| 0.00274 | 0.25 | CC[C@]1(O)C[C@H]2CN(CCc3c([nH]c4ccccc34)[C@@](C(=O)OC)(c3cc4c(cc3OC)N(C=O)[C@H]3[C@@](O)(C(=O)OC)[C@H](OC(C)=O)[C@]5(CC)C=CCN6CC[C@]43[C@@H]65)C2)C1 [Vincristine] | 17.2 | 17 |  | 3.8 | 4 | 0.0471 | 17 |  |  | 5000 | substantial increase | same results | 20 |  | 33 |
